Source: patent publication US5140025A, “Thienotricylene for the treatment of bronchial diseases” (BYK Gulden Lomberg Chemische Fabrik GmbH, priority 1987, dated 1992)

Key:
[1] = tested on: acetylcholine-induced bronchospasm; test: Acetylcholine-induced bronchospasm in anaesthetised, spontaneously breathing guinea pigs, intravenous administration; assay type: in vivo, guinea pig (Pirbright White); settings: for Mean bronchospasmolytic activity, percentage increase of Vmaxe vs control spasm / Mean bronchospasmolytic activity, percentage increase of tidal volume (TV) vs control spasm: 0-60 min; for Mean bronchospasmolytic activity, percentage increase of Vmaxe vs control spasm / Mean bronchospasmolytic activity, percentage increase of tidal volume (TV) vs control spasm / Bronchospasmolytic activity, percentage increase of Vmaxe vs control spasm / Bronchospasmolytic activity, percentage increase of tidal volume (TV) vs control spasm: x±SEM, N=10; for Bronchospasmolytic activity, percentage increase of Vmaxe vs control spasm / Bronchospasmolytic activity, percentage increase of tidal volume (TV) vs control spasm: at 60 min
Excerpt: Effect of Intravenously Administered Telenzepine on Acetylchline-Induced Bronchospasms in Anaesthetised, Spontaneously Breathing Guinea Pigs
Method for simultaneously recording pharmacodynamic or toxic effects on interior sensitive receptors and the respiration of guinea pigs (U. Kilian, E. Muller, E. Ch. Dittmann and J. Hamacher, Arzneim.-Forsch. 28, 1699-1708, 1978).
Pirbright White, Interfauna (Tuttlingen), 350-450 g, male.
Ethylurethane 1.2 g/kg i.p. as 12.5% aqueous solution.
Pneumotachogram: Maximum flow velocities of the respiratory air during expiration (Vmaxe, "peak flow"), tidal volume (TV).
Acetylcholine as spasmogen, 0.2-0.3 μmol/kg i.v., dissolved in 0.9% NaCl.
-10 min control spasm, 0 min administration of substance, +2, +10, +20, +30, +60 min test spasms.
Determination of the effect of telenzepine on the parameters (mean and standard error of mean, n=10) and calculation of the bronchospasmolytic activity from this as percentage inhibition of the acetylcholine-induced decrease of Vmaxe and TV by means of time/effect curves. Computation of a dose/response curve of the mean bronchospasmolytic activity during the observation time (0-60 min) from the areas under the time/effect curves and reading of 1 h ED50 values. Determination of a dose/response curve of the bronchospasmolytic activity at time 60 min and reading ED50 values.

[2] = target: T1, M2 receptor (cardiac) (Rattus norvegicus, UniProt P10980); test: Receptor affinity, electrically stimulated left atrium of the rat; settings: agonist carbachol, Schild slope normalised to 1.00, read-out: pA2 ± SEM, M2 receptor (cardiac) (converted)
T1 construct: isolated, left atria of rats (male 250-350 g); from tissue; host or cells: rat left atrium (isolated, male rats 250-350 g)
T1 sequence (P10980 1-466): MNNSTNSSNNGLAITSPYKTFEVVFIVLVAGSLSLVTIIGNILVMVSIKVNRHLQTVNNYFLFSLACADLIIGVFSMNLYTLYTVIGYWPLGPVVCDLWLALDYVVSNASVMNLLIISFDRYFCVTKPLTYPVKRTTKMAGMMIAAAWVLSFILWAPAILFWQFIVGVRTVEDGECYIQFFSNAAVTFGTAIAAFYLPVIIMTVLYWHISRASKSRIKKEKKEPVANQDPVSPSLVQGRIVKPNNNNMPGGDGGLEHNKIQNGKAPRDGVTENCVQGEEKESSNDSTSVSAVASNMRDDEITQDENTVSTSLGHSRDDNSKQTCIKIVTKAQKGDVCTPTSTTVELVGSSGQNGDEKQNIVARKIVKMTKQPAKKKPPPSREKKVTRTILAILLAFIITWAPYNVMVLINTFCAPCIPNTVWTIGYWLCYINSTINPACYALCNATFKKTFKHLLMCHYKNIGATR
Excerpt: The affinity of (±)-4,9-dihydro-3-methyl-4-[(4-methyl-1-piperazinyl)-acetyl]-10H-thieno[3,4-b][1,5]benzodiazepin-10-one (telenzepine, compound 2 in Table 7) and its conformers [(+)-enantiomer=compound 1, (-)-enantiomer=compound 3] to muscarinic M1 (ganglionic type) and M2 (cardiac type) receptors was investigated by the following methods:
Electrically Stimulated Left Atrium of the Rat (Eltze et al., 1985, Europ. J. Pharmacol. 112, 211-224).
Isometric contractions (HSE force transducer, K-30; Watanabe Linear Corder Mark 5) of isolated, left atria of rats (male 250-350 g) were recorded in an organ bath (10 ml, Tyrode nutrient solution, 31° C., gassing with carbogen, initial tension of the organs 0.25 g) under electrical stimulation (HSE stimulator; hook-shaped Pt electrodes at the base of the bath and immersed, annular Pt electrodes 1 cm below the water surface of the bath; 7 V, 3 ms, 2 Hz). After an equilibration time of 30 minutes, cumulative dose/response curves of carbachol (10^-8 -10^-6 M, in the presence of the antagonist also up to 10^-5 or 10^-4 M) were recorded simultaneously on 4 organs in each case by the technique described by van Rossum (1963). The substance to be tested was added to the organ baths 20 minutes before application of the carbachol. The pauses between the individual dose/response curves were 30-45 minutes.
The Tyrode nutrient solution used had the following composition (mM): NaCl 130, KCl 2.0, CaCl2 ·2H2 O 1.8, MgCl2 ·6H2 O 0.98, NaHCO3 12.0, NaH2 PO4 0.42 and glucose monohydrate 5.6. pA2 values (-log of the molar dissociation constants of the competitive antagonist-receptor complex) were determined by linear regression using the Schild plot: pA2 =-log [B/(x-1)], (Arunlakshana and Schild, 1959).
Table 7 below gives pA2 values of the substances, for which the slope of the regression lines for theoretically competitive antagonism have been normalised to 1.00 (Tallarida et al., 1979).

[3] = tested on: modified Shay rat (lesion formation and acid secretion); test: Antiulcerogenic and secretion-inhibiting action on the modified Shay rat; assay type: in vivo
Excerpt: The excellent gastric protective action and the gastric secretion-inhibiting action of the compound (+)-4,9-dihydro-3-methyl-4-[(4-methyl-1-piperazinyl)-acetyl]-10H-thieno[3,4-b][1,5]benzodiazepin-10-one (=compound 1 in Table 8 below) in comparison with the corresponding (-)-enantiomer (=compound 3) and with the racemate (=compound 2) can be detected in studies on the modified Shay rat. The effect of the stated compounds after intravenous (i.v.) administration on the formation of lesions and the acid secretion in the modified Shay rat is shown in Table 8 below.
Ulcers are provoked in rats (female, 180-200 g, 4 animals per cage on high grids) which have fasted for 24 hours, by pylorus ligature (under diethyl ether anaesthesia) and oral administration of 100 mg/10 ml/kg of acetylsalicylic acid. The substances to be tested are administered intravenously (1 ml/kg) directly after the pylorus ligature. The wound is closed by means of Michel clamps. 4 hours afterwards, the animals are sacrificed under anaesthesia with ether by Atlas dislocation, and resection of the stomach.
The stomach is opened along the greater curvature and clamped to a cork sheet, the amount of secreted gastric juice (volume) is determined first and its HCl content (titration with sodium hydroxide solution) being determined subsequently. The number and size (=diameter) of ulcers present are determined using a stereomicroscope, under 10×magnification. The product of severity (according to the following point scale) and number of ulcers serves as an individual lesion index.
The reduction in the means lesion index of each treated group compared with the control group (=100%) serves as a measure of the antiulcerogenic effect. The ED50 is the dose which reduces the mean lesion index or the HCl secretion by 50% compared with the control.

[4] = target: M1 receptor (ganglionic); test: Receptor affinity, electrically stimulated rabbit vas deferens in organ bath; settings: vas deferens of the rabbit, agonist McN-A-343, Schild slope normalised to 1.00; listed as Compound 1
Procedure: Isometric contractions (HSE force transducer, K-30; tilt and zones, BD-9 chart recorder) of isolated seminal duct sections of rabbits (male, white New Zealand rabbits, 2.5-3.5 kg) were recorded in an organ bath (10 ml, 31° C., gassing with carbogen, initial tension of the organs 0.75 g) under electrical stimultion (HSE stimulator; hook-shaped Pt electrode 1 cm below the water surface of the bath; 30 V, 0.5 ms, 0.05 Hz). After an equilibration time of 30 minutes, cumulative dose/response curves of McN-A-343 (10^-7 -2×10^-6 M) were recorded simultaneously on 8 organ sections in each case (control curves), using the technique described by van Rossum (1963). After 3 control curves, a fixed concentration of the agonist (for example 5×10^-7, 10^-6, 3×10^-6, 10^-5 or 3×10^-5 M) per organ section was applied and, after stabilisation of the effect, increasing concentrations of the agonist to be tested were added. The nutrient solution used had the following composition (mM): NaCl 118, KCl 4.7, CaCl2 ·2H2 O 2.5, MgSO4 ·7H2 O 0.6, KH2 PO 4 1.2, NaHCO3 25.0 and glucose 11.1. In order to block α2 -adrenoreceptors, the nutrient solution additionally contained 10^-6 M yohimbine.

[5] = at time 60 min after administration, 60 min
[6] = modified Shay rat, i.v., interpolated dose, 4 h, N=24, listed as 1, 240 min

`Cc1scc2c1N(C(=O)CN1CCN(C)CC1)c1ccccc1NC2=O` [(+)-telenzepine, (+)-4,9-dihydro-3-methyl-4-[(4-methyl-1-piperazinyl)-acetyl]-10H-thieno[3,4-b][1,5]benzodiazepin-10-one] was tested, and the “Mean bronchospasmolytic activity, percentage increase of Vmaxe vs control spasm” value ([1]; 0.03 μmol/kg i.v.) was 13 ± 4%, the “Mean bronchospasmolytic activity, percentage increase of tidal volume (TV) vs control spasm” value ([1]; 0.03 μmol/kg i.v.) was 17 ± 4% and the “Mean bronchospasmolytic activity, percentage increase of Vmaxe vs control spasm” value ([1]; 0.05 μmol/kg i.v.) was 21 ± 4%. The “Mean bronchospasmolytic activity, percentage increase of tidal volume (TV) vs control spasm” value ([1]; 0.05 μmol/kg i.v.) was 25 ± 5%, the “Mean bronchospasmolytic activity, percentage increase of Vmaxe vs control spasm” value ([1]; 0.1 μmol/kg i.v.) was 57 ± 5% and the “Mean bronchospasmolytic activity, percentage increase of tidal volume (TV) vs control spasm” value ([1]; 0.1 μmol/kg i.v.) was 62 ± 5%. The “Mean bronchospasmolytic activity, percentage increase of Vmaxe vs control spasm” value ([1]; 0.5 μmol/kg i.v.) was 87 ± 3%, the “Mean bronchospasmolytic activity, percentage increase of tidal volume (TV) vs control spasm” value ([1]; 0.5 μmol/kg i.v.) was 92 ± 3% and the “Mean bronchospasmolytic activity, percentage increase of Vmaxe vs control spasm” value ([1]; 1 μmol/kg i.v.) was 82 ± 3%. The “Mean bronchospasmolytic activity, percentage increase of tidal volume (TV) vs control spasm” value ([1]; 1 μmol/kg i.v.) was 85 ± 3%, the “Bronchospasmolytic activity, percentage increase of Vmaxe vs control spasm” value ([1]; 0.03 μmol/kg i.v.) was 19 ± 6% and the “Bronchospasmolytic activity, percentage increase of tidal volume (TV) vs control spasm” value ([1]; 0.03 μmol/kg i.v.) was 23 ± 7%. For the same molecule, the “Bronchospasmolytic activity, percentage increase of Vmaxe vs control spasm” value ([1]; 0.05 μmol/kg i.v.) was 35 ± 7%, the “Bronchospasmolytic activity, percentage increase of tidal volume (TV) vs control spasm” value ([1]; 0.05 μmol/kg i.v.) was 39 ± 7% and the “Bronchospasmolytic activity, percentage increase of Vmaxe vs control spasm” value ([1]; 0.1 μmol/kg i.v.) was 61 ± 6%. For the same molecule, the “Bronchospasmolytic activity, percentage increase of tidal volume (TV) vs control spasm” value ([1]; 0.1 μmol/kg i.v.) was 64 ± 7%, the “Bronchospasmolytic activity, percentage increase of Vmaxe vs control spasm” value ([1]; 0.5 μmol/kg i.v.) was 95 ± 4% and the “Bronchospasmolytic activity, percentage increase of tidal volume (TV) vs control spasm” value ([1]; 0.5 μmol/kg i.v.) was 100 ± 4%. For the same molecule, the “Bronchospasmolytic activity, percentage increase of Vmaxe vs control spasm” value ([1]; 1 μmol/kg i.v.) was 88 ± 4%, the “Bronchospasmolytic activity, percentage increase of tidal volume (TV) vs control spasm” value ([1]; 1 μmol/kg i.v.) was 88 ± 4% and the “ED50 of bronchospasmolytic activity, TV” value [1, 5] was 0.07 μmol/kg i.v. For the same molecule, the “ED50 of bronchospasmolytic activity, Vmaxe” value [1, 5] was 0.07 μmol/kg i.v, the “dose range of dose- and time-dependent inhibition of acetylcholine-induced bronchospasm” value ([1]; i.v.) was 0.03-1 μmol/kg i.v and the “persistence of maximum effect” value ([1]; i.v., observation period) was at least 1 h. For the same molecule, the “ED50 of mean bronchospasmolytic activity, TV” value ([1]; mean activity 0-60 min, 60 min) was 0.08 μmol/kg i.v, the “ED50 of mean bronchospasmolytic activity, Vmaxe” value ([1]; mean activity 0-60 min, 60 min) was 0.1 μmol/kg i.v and the Kb [2] was 21.4 nM. For the same molecule, the “Gastric protective action, reduction of lesion index, about ED50” value [3, 6] was about 0.01 mg/kg i.v, the “Inhibition of acid secretion, reduction of HCl secretion, about ED50” value [3, 6] was about 0.085 mg/kg i.v and the “protective action with respect to stomach and intestine, doses compared with acid secretion-inhibiting doses” value ([3]; warm-blooded animals) was “observed with the administration of doses which are below the doses which inhibit acid secretion”. For the same molecule, the “pA2 ± SEM, M1 receptor (ganglionic)” value [4] was 9.12 ± 0.08.
